# Assay results taken from US9302999B2, “Substituted triazoles as herbicides” (E. I. DU PONT DE NEMOURS AND COMPANY, priority 2012, dated 2016).
# Experiments:
# Type in all cases: in vivo
# [1] = tested on: goosegrass (Eleusine indica); assay: Test E pre-/postemergence: goosegrass; details: Preemergence, scale 0 to 100
# How it was run: (§1)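 Preemergence: seeds sown in silt loam soil and treated with test chemicals in non-phytotoxic solvent with surfactant. Postemergence: plants at 2 to 18 cm (1- to 4-leaf stage) in peat/vermiculite medium were sprayed with the same formulations. After 14 to 21 days in greenhouse, injury was rated visually against controls, 0 (no effect) to 100 (complete control).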
# [2] = tested on: foxtail, green (green foxtail, Setaria viridis); assay: Test E pre-/postemergence: foxtail, green; details: Preemergence, scale 0 to 100
# Text: (§2) Seeds of plant species selected from corn (Zea mays), soybean (Glycine max), velvetleaf (Abutilon theophrasti), lambsquarters (Chenopodium album), poinsettia, wild (wild poinsettia, Euphorbia heterophylla), pigweed, palmer (palmer pigweed, Amaranthus palmeri), waterhemp (common waterhemp, Amaranthus rudis), smartweed (ladysthumb smartweed, Polygonum persicaria), surinam grass (Brachiaria decumbens), crabgrass, large (large crabgrass, Digitaria sanguinalis), crabgrass, Brazil (Brazilian crabgrass, Digitaria horizontalis), panicum, fall (fall panicum, Panicum dichotomiflorum), foxtail, giant (giant foxtail, Setaria faberii), foxtail, green (green foxtail, Setaria viridis), goosegrass (Eleusine indica), johnsongrass (Sorghum halepense), ragweed (common ragweed, Ambrosia elation), barnyardgrass (Echinochloa crus-galli), sandbur (southern sandbur, Cenchrus echinatus), arrowleaf sida (Sida rhombifolia), ryegrass, Italian (Italian ryegrass, Lolium multiflorum), dayflower, (VA) (Virginia dayflower, Commelina virginica), field bindweed (Convolvulus arvensis), cocklebur (common cocklebur, Xanthium strumarium), morningglory (Ipomoea coccinea), nightshade (eastern black nightshade, Solanum ptycanthum), kochia (Kochia scoparia), nutsedge, yellow (yellow nutsedge, Cyperus esculentus) and beggarticks (hairy beggarticks, Bidens pilosa) were planted into a silt loam soil and treated preemergence with test chemicals formulated in a non-phytotoxic solvent mixture which included a surfactant. At the same time, plants selected from these crop and weed species were planted in pots containing a growing medium comprising spaghnum peat moss, vermiculite, wetting agent and starter nutrients and treated with postemergence applications of some of the test chemicals formulated in the same manner. Plants ranged in height from 2 to 18 cm for postemergence treatments (1- to 4-leaf stage).
# (§3) Treated plants and controls were maintained in a greenhouse for 14 to 21 days, after which time all species were compared to controls and visually evaluated. Plant response ratings, summarized in Table E, are based on a scale of 0 to 100 where 0 is no effect and 100 is complete control. A dash (-) response means no test result.
# [3] = tested on: waterhemp (common waterhemp, Amaranthus rudis); assay: Test E pre-/postemergence: waterhemp; details: scale 0 to 100
# Text: as §2, §3
# [4] = tested on: dayflower, (VA) (Virginia dayflower, Commelina virginica); assay: Test E pre-/postemergence: dayflower, (VA); details: scale 0 to 100
# How it was run: as §1
# [5] = tested on: morningglory (Ipomoea coccinea); assay: Test E pre-/postemergence: morningglory; details: Preemergence, scale 0 to 100
# How it was run: as §1
# [6] = tested on: poinsettia, wild (wild poinsettia, Euphorbia heterophylla); assay: Test E pre-/postemergence: poinsettia, wild; details: scale 0 to 100
# How it was run: as §1
# [7] = tested on: cocklebur (common cocklebur, Xanthium strumarium); assay: Test E pre-/postemergence: cocklebur; details: Preemergence, scale 0 to 100
# Text: as §2, §3
# [8] = tested on: ragweed (common ragweed, Ambrosia elation); assay: Test E pre-/postemergence: ragweed; details: Preemergence, scale 0 to 100
# How it was run: as §1
# [9] = tested on: lambsquarters (Chenopodium album); assay: Test E pre-/postemergence: lambsquarters; details: Preemergence, scale 0 to 100
# Text: as §2, §3
# kochia (Kochia scoparia) = assay: Test E pre-/postemergence: kochia; details: Preemergence, scale 0 to 100
# Text: as §2, §3
smiles,measurement,setting,value
Cc1nn(-c2ccc(C(F)(F)F)cc2)nc1Oc1ccnc(C(F)(F)F)c1 [Compound 120],Plant response rating: Goosegrass,[1]; 16 g ai/ha,95
same,Plant response rating: Goosegrass,[1]; 31 g ai/ha,100
same,Plant response rating: Goosegrass,[1]; 62 g ai/ha,100
same,Plant response rating: Goosegrass,[1]; 125 g ai/ha,100
same,Plant response rating: Goosegrass,[1]; 250 g ai/ha,100
same,"Plant response rating: Foxtail, Green",[2]; 16 g ai/ha,15
same,"Plant response rating: Foxtail, Green",[2]; 31 g ai/ha,85
same,"Plant response rating: Foxtail, Green",[2]; 62 g ai/ha,100
same,"Plant response rating: Foxtail, Green",[2]; 125 g ai/ha,100
same,"Plant response rating: Foxtail, Green",[2]; 250 g ai/ha,100
same,Plant response rating: Waterhemp,"[3]; Postemergence, 8 g ai/ha",30
same,Plant response rating: Waterhemp,"[3]; Postemergence, 16 g ai/ha",50
same,Plant response rating: Waterhemp,"[3]; Postemergence, 31 g ai/ha",65
same,Plant response rating: Waterhemp,"[3]; Postemergence, 62 g ai/ha",75
same,Plant response rating: Waterhemp,"[3]; Postemergence, 125 g ai/ha",75
same,Plant response rating: Waterhemp,"[3]; Preemergence, 16 g ai/ha",95
same,Plant response rating: Waterhemp,"[3]; Preemergence, 31 g ai/ha",98
same,Plant response rating: Waterhemp,"[3]; Preemergence, 62 g ai/ha",100
same,Plant response rating: Waterhemp,"[3]; Preemergence, 125 g ai/ha",100
same,Plant response rating: Waterhemp,"[3]; Preemergence, 250 g ai/ha",100
same,"Plant response rating: Dayflower, VA","[4]; Postemergence, 8 g ai/ha",10
same,"Plant response rating: Dayflower, VA","[4]; Postemergence, 16 g ai/ha",10
same,"Plant response rating: Dayflower, VA","[4]; Postemergence, 31 g ai/ha",10
same,"Plant response rating: Dayflower, VA","[4]; Postemergence, 62 g ai/ha",10
same,"Plant response rating: Dayflower, VA","[4]; Postemergence, 125 g ai/ha",15
same,"Plant response rating: Dayflower, VA","[4]; Preemergence, 16 g ai/ha",0
same,"Plant response rating: Dayflower, VA","[4]; Preemergence, 31 g ai/ha",0
same,"Plant response rating: Dayflower, VA","[4]; Preemergence, 62 g ai/ha",50
same,"Plant response rating: Dayflower, VA","[4]; Preemergence, 125 g ai/ha",50
same,"Plant response rating: Dayflower, VA","[4]; Preemergence, 250 g ai/ha",50
same,Plant response rating: Morningglory,[5]; 16 g ai/ha,0
same,Plant response rating: Morningglory,[5]; 31 g ai/ha,30
same,Plant response rating: Morningglory,[5]; 62 g ai/ha,35
same,Plant response rating: Morningglory,[5]; 125 g ai/ha,60
same,Plant response rating: Morningglory,[5]; 250 g ai/ha,60
same,"Plant response rating: Poinsettia, Wild","[6]; Postemergence, 8 g ai/ha",25
same,"Plant response rating: Poinsettia, Wild","[6]; Postemergence, 16 g ai/ha",35
same,"Plant response rating: Poinsettia, Wild","[6]; Postemergence, 31 g ai/ha",13
same,"Plant response rating: Poinsettia, Wild","[6]; Postemergence, 62 g ai/ha",60
same,"Plant response rating: Poinsettia, Wild","[6]; Postemergence, 125 g ai/ha",90
same,"Plant response rating: Poinsettia, Wild","[6]; Preemergence, 16 g ai/ha",0
same,"Plant response rating: Poinsettia, Wild","[6]; Preemergence, 31 g ai/ha",0
same,"Plant response rating: Poinsettia, Wild","[6]; Preemergence, 62 g ai/ha",0
same,"Plant response rating: Poinsettia, Wild","[6]; Preemergence, 125 g ai/ha",35
same,"Plant response rating: Poinsettia, Wild","[6]; Preemergence, 250 g ai/ha",50
same,Plant response rating: Cocklebur,[7]; 16 g ai/ha,0
same,Plant response rating: Cocklebur,[7]; 31 g ai/ha,0
same,Plant response rating: Cocklebur,[7]; 62 g ai/ha,90
same,Plant response rating: Cocklebur,[7]; 125 g ai/ha,90
same,Plant response rating: Ragweed,[8]; 16 g ai/ha,0
same,Plant response rating: Ragweed,[8]; 31 g ai/ha,0
same,Plant response rating: Ragweed,[8]; 62 g ai/ha,30
same,Plant response rating: Ragweed,[8]; 125 g ai/ha,35
same,Plant response rating: Ragweed,[8]; 250 g ai/ha,80
same,Plant response rating: Lambsquarters,[9]; 16 g ai/ha,0
same,Plant response rating: Lambsquarters,[9]; 31 g ai/ha,50
same,Plant response rating: Lambsquarters,[9]; 62 g ai/ha,90
same,Plant response rating: Lambsquarters,[9]; 125 g ai/ha,98
same,Plant response rating: Lambsquarters,[9]; 250 g ai/ha,98
same,Plant response rating: Kochia,kochia (Kochia scoparia); 16 g ai/ha,0
same,Plant response rating: Kochia,kochia (Kochia scoparia); 31 g ai/ha,20
same,Plant response rating: Kochia,kochia (Kochia scoparia); 62 g ai/ha,50
same,Plant response rating: Kochia,kochia (Kochia scoparia); 125 g ai/ha,90
same,Plant response rating: Kochia,kochia (Kochia scoparia); 250 g ai/ha,100
